According to patent US9453026B2, “ACC inhibitors and uses thereof” (Gilead Apollo, Inc., priority 2011, dated 2016):
Values after ≈ are worked out from the molar mass of the structure shown. Values joined by “and” are separate entries in the source; they are usually repeats but may differ in a detail not shown here. Equal values may be shown once. Read-outs that look alike come from different tables or passages of the source.

What was measured:
[1] = system: C. parapsilosis ATCC 22019; test: Anti-Fungal Activity Assay (broth microtiter MIC); type: cell-based; settings: 3 replicates, test compounds read at 48 h
Description: (§1) Compounds of the present invention were evaluated in an Anti-Fungal Activity Assay. An exemplary procedure for the assay, which measures the susceptibility of various Candida species to anti-fungal compounds, follows. Compounds to be tested (including fluconazole and amphotericin B) were dissolved in DMSO to obtain a solution having a concentration of 1 mg/mL. […] All species were grown from frozen stock by directly plating on to freshly prepared Sabouraud Dextrose agar (BD, Difco) and incubated overnight in ambient air at 35° C. for 24 h. A direct suspension was prepared in RPMI 1640+MOPS (Lonza, Biowhittaker) by taking individual colonies from the overnight cultures using sterile swabs soaked in sterile saline. The concentration of the suspension was determined using pre-determined standard curves. […] The original CLSI guidelines focused on reading Candida MICs after 48 h of incubation. As reading after only 24 h offers a clear advantage of patient care, QC limits are being established for all drugs at 24 h. That being said there are no known interpretive breakpoints for amphotericin B at 24 h and the current fluconazole interpretive breakpoints are based on a 48 h reading. The MIC breakpoints for the Pharmaron test compounds were recorded at 48 h, and for the soraphen the 24 h time-point was added. All MIC determinations were achieved by visually comparing the growth found in the antibiotic challenged wells to that of the growth control.

C. krusei ATCC 6258 = test: Anti-Fungal Activity Assay (broth microtiter MIC); type: cell-based; settings: 3 replicates, test compounds read at 48 h
Description: as §1

C. albicans ATCC 90028 = test: Anti-Fungal Activity Assay (broth microtiter MIC); type: cell-based; settings: 3 replicates, test compounds read at 48 h
Description: as §1

Candida species = test: Anti-Fungal Activity Assay, summary over Candida species; type: cell-based; settings: summary of Table 3
Description: as §1

ACC2 = ACC2 (Homo sapiens, UniProt O00763); test: In vitro ACC2 inhibition assay (ADP-Glo); type: biochemical; settings: read-out: ACC2
Sequence of ACC2 (O00763 whole entry, species assumed): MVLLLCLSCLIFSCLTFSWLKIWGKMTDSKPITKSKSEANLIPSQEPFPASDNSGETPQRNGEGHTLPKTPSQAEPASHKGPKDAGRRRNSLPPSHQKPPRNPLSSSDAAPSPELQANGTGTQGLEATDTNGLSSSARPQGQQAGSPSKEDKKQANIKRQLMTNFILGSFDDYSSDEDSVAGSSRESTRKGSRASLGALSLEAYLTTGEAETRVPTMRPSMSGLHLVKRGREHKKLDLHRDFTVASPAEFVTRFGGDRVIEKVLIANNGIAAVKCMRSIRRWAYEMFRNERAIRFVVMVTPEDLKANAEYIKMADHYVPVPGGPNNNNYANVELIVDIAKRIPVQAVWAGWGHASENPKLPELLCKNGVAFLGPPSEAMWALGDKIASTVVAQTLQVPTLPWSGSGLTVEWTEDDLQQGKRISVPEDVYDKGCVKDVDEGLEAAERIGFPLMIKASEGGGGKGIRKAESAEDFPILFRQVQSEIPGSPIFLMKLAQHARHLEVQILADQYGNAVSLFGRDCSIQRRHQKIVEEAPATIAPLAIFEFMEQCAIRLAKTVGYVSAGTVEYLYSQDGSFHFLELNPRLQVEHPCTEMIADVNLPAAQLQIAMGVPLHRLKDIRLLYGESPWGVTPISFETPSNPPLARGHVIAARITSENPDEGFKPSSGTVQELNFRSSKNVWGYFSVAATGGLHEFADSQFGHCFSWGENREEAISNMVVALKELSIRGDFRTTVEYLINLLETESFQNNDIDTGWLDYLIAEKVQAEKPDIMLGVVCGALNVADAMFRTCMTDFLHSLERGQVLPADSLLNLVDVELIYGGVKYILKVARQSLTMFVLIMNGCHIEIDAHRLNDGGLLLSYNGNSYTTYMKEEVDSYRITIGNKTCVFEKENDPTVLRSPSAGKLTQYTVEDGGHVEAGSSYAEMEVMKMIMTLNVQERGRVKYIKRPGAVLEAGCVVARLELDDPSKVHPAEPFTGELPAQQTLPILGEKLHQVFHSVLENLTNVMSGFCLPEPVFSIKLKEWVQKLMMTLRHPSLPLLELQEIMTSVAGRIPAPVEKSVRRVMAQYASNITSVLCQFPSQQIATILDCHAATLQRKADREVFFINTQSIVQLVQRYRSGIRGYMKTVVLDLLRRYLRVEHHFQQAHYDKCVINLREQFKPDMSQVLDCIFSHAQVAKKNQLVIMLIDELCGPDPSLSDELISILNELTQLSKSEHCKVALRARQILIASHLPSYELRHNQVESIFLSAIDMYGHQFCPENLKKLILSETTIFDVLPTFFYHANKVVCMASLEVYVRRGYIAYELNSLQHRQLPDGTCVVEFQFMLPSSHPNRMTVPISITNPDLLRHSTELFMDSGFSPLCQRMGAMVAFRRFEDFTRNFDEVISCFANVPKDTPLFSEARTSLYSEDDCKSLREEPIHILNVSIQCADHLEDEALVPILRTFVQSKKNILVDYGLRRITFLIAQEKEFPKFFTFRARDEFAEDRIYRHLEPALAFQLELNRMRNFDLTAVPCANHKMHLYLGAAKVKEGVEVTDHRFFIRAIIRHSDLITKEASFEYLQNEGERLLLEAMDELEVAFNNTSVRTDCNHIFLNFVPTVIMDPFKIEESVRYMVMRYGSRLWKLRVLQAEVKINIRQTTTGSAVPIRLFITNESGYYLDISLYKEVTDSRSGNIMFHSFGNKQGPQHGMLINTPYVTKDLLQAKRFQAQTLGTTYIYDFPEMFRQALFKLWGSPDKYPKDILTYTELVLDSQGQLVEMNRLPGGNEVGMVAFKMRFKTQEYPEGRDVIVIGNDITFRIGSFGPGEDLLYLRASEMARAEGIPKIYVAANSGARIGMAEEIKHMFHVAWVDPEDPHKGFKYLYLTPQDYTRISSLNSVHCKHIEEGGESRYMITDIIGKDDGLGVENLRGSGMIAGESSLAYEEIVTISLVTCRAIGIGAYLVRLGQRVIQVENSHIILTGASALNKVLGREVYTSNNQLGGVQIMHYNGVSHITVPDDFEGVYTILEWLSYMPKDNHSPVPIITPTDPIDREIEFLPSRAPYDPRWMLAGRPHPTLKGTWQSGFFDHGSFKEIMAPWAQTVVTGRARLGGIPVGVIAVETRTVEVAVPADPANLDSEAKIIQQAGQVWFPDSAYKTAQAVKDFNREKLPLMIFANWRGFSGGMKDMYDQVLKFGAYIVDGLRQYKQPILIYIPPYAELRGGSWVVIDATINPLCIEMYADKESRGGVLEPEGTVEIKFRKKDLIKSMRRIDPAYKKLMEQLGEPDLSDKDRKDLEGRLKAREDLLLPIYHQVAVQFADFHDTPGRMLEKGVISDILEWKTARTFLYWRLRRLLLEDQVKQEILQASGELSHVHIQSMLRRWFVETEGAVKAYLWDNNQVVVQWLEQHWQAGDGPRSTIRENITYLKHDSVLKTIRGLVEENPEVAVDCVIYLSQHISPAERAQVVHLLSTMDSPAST
In short: (§2)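 Enzyme (human ACC1 or ACC2) and compound, serially diluted 1:3 over 11 points from a 600 uM DMSO stock, were preincubated 15 min before substrate addition.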

ACC1 = ACC1 (Homo sapiens, UniProt Q13085); test: In vitro ACC1 inhibition assay (ADP-Glo); type: biochemical; settings: read-out: ACC1
In short: as §2

target protein (ACC) = test: Thermal Shift Assay (TSA); type: binding; settings: FIG. 2
Source text: 103, 43, 15835-15840, the entirety of which is incorporated herein by reference.

[2] = Lodderomyces parapsilosis, ATCC22019, 48 h, read-out: MIC
[3] = Pichia kudriavzevii, ATCC6258, 48 h, read-out: MIC
[4] = Candida albicans, ATCC90028, 48 h, read-out: MIC

SMILES | MIC [1] | MIC [1, 2] [µg/mL] | MIC (C. krusei ATCC 6258) | MIC (C. krusei ATCC 6258; [3]) [µg/mL] | MIC (C. albicans ATCC 90028) | MIC (C. albicans ATCC 90028; [4]) [µg/mL] | anti-fungal activity MICs (Candida species) | IC50 (ACC2) [nM] | IC50 (ACC1) [nM] | thermal melting point change (target protein (ACC))
COc1ccccc1[C@H](Cn1c(=O)n(C(C)(C)C(N)=O)c(=O)c2c(C)c(-c3ncco3)sc21)OC1CCOCC1 [I-246, 2-[1-[(2R)-2-(2-methoxyphenyl)-2-(oxan-4-yloxy)ethyl]-5-methyl-6-(1,3-oxazol-2-yl)-2,4-dioxo-1H,2H,3H,4H-thieno[2,3-d]pyrimidin-3-yl]-2-methylpropanamide] | 4 µg/mL (≈ 7.03 µM) | 4 (≈ 7.03 µM) | 16 µg/mL (≈ 28.1 µM) | 16 (≈ 28.1 µM) | 4 µg/mL (≈ 7.03 µM) | 4 (≈ 7.03 µM) | low ug/mL range | – | – | –
Cc1c(-c2ncco2)sc2c1c(=O)n(C(C)(C)C(=O)O)c(=O)n2C[C@H](OC1CCOCC1)c1ccccc1 [I-162, 2-methyl-2-[5-methyl-1-[(2R)-2-(oxan-4-yloxy)-2-phenylethyl]-6-(1,3-oxazol-2-yl)-2,4-dioxo-1H,2H,3H,4H-thieno[2,3-d]pyrimidin-3-yl]propanoic acid] | >64 µg/mL | > 64 | >64 µg/mL | > 64 | >64 µg/mL | > 64 | – | < 1000 | < 100 | –
COc1ccccc1[C@H](Cn1c(=O)n(C(C)(C)C(=O)N2CCOCC2)c(=O)c2c(C)c(-c3ncco3)sc21)OC(C)C [I-235, 1-[(2R)-2-(2-methoxyphenyl)-2-(propan-2-yloxy)ethyl]-5-methyl-3-[2-methyl-1-(morpholin-4-yl)-1-oxopropan-2-yl]-6-(1,3-oxazol-2-yl)-1H,2H,3H,4H-thieno[2,3-d]pyrimidine-2,4-dione] | 8 µg/mL (≈ 13.4 µM) | 8 (≈ 13.4 µM) | 8 µg/mL (≈ 13.4 µM) | 8 (≈ 13.4 µM) | 8 µg/mL (≈ 13.4 µM) | 8 (≈ 13.4 µM) | low ug/mL range | < 100 | < 100 | –
COc1ccccc1[C@H](Cn1c(=O)n(C(C)(C)C(=O)O)c(=O)c2c(C)c(-c3ncco3)sc21)OC(C)C [I-159, 2-[1-[(2R)-2-(2-methoxyphenyl)-2-(propan-2-yloxy)ethyl]-5-methyl-6-(1,3-oxazol-2-yl)-2,4-dioxo-1H,2H,3H,4H-thieno[2,3-d]pyrimidin-3-yl]-2-methylpropanoic acid] | >64 µg/mL | > 64 | 16 µg/mL and 32 µg/mL | 16 (≈ 30.3 µM) | 8 µg/mL (≈ 15.2 µM) | 8 (≈ 15.2 µM) | low ug/mL range | < 1000 | – | –
C[C@@H]1[C@H](O)[C@@H](C)/C=C/C=C/C=C/C=C/C=C/C=C/C=C/[C@H](O[C@@H]2O[C@H](C)[C@@H](O)[C@H](N)[C@@H]2O)C[C@@H]2O[C@](O)(C[C@@H](O)C[C@@H](O)[C@H](O)CC[C@@H](O)C[C@@H](O)CC(=O)O[C@H]1C)C[C@H](O)[C@H]2C(=O)O [Amph. B, amphotericin B, reference compound] | 1 µg/mL (≈ 1.08 µM) | – | 1 µg/mL (≈ 1.08 µM) | – | 0.5 ug/mL (2×) and 1 ug/mL | – | – | – | – | –
Cc1c(-c2ncco2)sc2c1c(=O)n(C(C)(C)C(=O)O)c(=O)n2C[C@H](O[C@H]1CC[C@H](O)CC1)c1ccccc1 [I-165, 2-[1-[(2R)-2-[(4-hydroxycyclohexyl)oxy]-2-phenylethyl]-5-methyl-6-(1,3-oxazol-2-yl)-2,4-dioxo-1H,2H,3H,4H-thieno[2,3-d]pyrimidin-3-yl]-2-methylpropanoic acid] | >64 µg/mL | > 64 | >64 µg/mL | > 64 | >64 µg/mL | > 64 | – | < 100 | < 100 | –
CCNC(=O)C(C)(C)n1c(=O)c2c(C)c(-c3ncco3)sc2n(C[C@H](OC(C)C)c2ccccc2OC)c1=O [I-236, N-ethyl-2-[1-[(2R)-2-(2-methoxyphenyl)-2-(propan-2-yloxy)ethyl]-5-methyl-6-(1,3-oxazol-2-yl)-2,4-dioxo-1H,2H,3H,4H-thieno[2,3-d]pyrimidin-3-yl]-2-methylpropanamide] | 2 µg/mL (≈ 3.61 µM) | 2 (≈ 3.61 µM) | 4 µg/mL (≈ 7.21 µM) | 8 (≈ 14.4 µM) | 8 µg/mL (≈ 14.4 µM) | 8 (≈ 14.4 µM) | low ug/mL range | < 100 | < 100 | –
OC(Cn1cncn1)(Cn1cncn1)c1ccc(F)cc1F [Fluc., fluconazole, reference compound] | 2 µg/mL and 4 µg/mL | 2 (≈ 6.53 µM) | 32 ug/mL (2×) and 2 ug/mL | – | 1 µg/mL and 2 µg/mL | 1 (≈ 3.27 µM) | – | – | – | –
Cc1c(-c2ncco2)sc2c1c(=O)n(C(C)(C)C(=O)O)c(=O)n2C[C@H](Oc1ccc(-n2ccnc2)cc1)c1ccccc1 [I-160, 2-[1-[(2R)-2-[4-(1H-imidazol-1-yl)phenoxy]-2-phenylethyl]-5-methyl-6-(1,3-oxazol-2-yl)-2,4-dioxo-1H,2H,3H,4H-thieno[2,3-d]pyrimidin-3-yl]-2-methylpropanoic acid] | >64 µg/mL | > 64 | >64 µg/mL | > 64 | >64 µg/mL | > 64 | – | < 100 | < 100 | –
CCOC(=O)c1sc2c(c1C)c(=O)n(CC(=O)O)c(=O)n2CC(OC(C)C)c1ccccc1 (stereo in doubt) [I-97, (R)-2-(6-(ethoxycarbonyl)-1-(2-isopropoxy-2-phenylethyl)-5-methyl-2,4-dioxo-1,2-dihydrothieno[2,3-d]pyrimidin-3(4H)-yl)acetic acid] | – | – | – | – | – | – | – | < 1000 | < 100 | more than 14 ′C
COc1ccccc1[C@H](Cn1c(=O)n(C(C)(C)C(=O)O)c(=O)c2c(C)c(-c3ncco3)sc21)O[C@H]1CC[C@H](O)CC1 [I-277, 2-[1-[(2R)-2-[(4-hydroxycyclohexyl)oxy]-2-(2-methoxyphenyl)ethyl]-5-methyl-6-(1,3-oxazol-2-yl)-2,4-dioxo-1H,2H,3H,4H-thieno[2,3-d]pyrimidin-3-yl]-2-methylpropanoic acid] | – | – | – | – | – | – | – | < 100 | < 100 | –
CCOc1ccccc1CCn1c(=O)n(C(C)(C)C(=O)O)c(=O)c2c(C)c(-c3ncco3)sc21 [I-135, 2-[1-[2-(2-ethoxyphenyl)ethyl]-5-methyl-6-(1,3-oxazol-2-yl)-2,4-dioxo-1H,2H,3H,4H-thieno[2,3-d]pyrimidin-3-yl]-2-methylpropanoic acid] | – | – | – | – | – | – | – | < 1000 | < 100 | –
COc1ccccc1[C@H](Cn1c(=O)n(CC(C)(C)O)c(=O)c2c(C)c(-c3ncco3)sc21)OC1CCOCC1 [I-287, 3-(2-hydroxy-2-methylpropyl)-1-[(2R)-2-(2-methoxyphenyl)-2-(oxan-4-yloxy)ethyl]-5-methyl-6-(1,3-oxazol-2-yl)-1H,2H,3H,4H-thieno[2,3-d]pyrimidine-2,4-dione] | – | – | – | – | – | – | – | < 100 | < 100 | –
CCOC(=O)c1sc2c(c1C)c(=O)n(C(C)(C)C(=O)O)c(=O)n2C[C@H](OCC(C)C)c1ccccc1 [I-123, 2-[6-(ethoxycarbonyl)-5-methyl-1-[(2R)-2-(2-methylpropoxy)-2-phenylethyl]-2,4-dioxo-1H,2H,3H,4H-thieno[2,3-d]pyrimidin-3-yl]-2-methylpropanoic acid] | – | – | – | – | – | – | – | < 1000 | < 100 | –
CCOc1ccccc1[C@H](Cn1c(=O)n(C(C)(C)C(=O)O)c(=O)c2c(C)c(-c3ncco3)sc21)OCCO [I-256, 2-[1-[(2R)-2-(2-ethoxyphenyl)-2-(2-hydroxyethoxy)ethyl]-5-methyl-6-(1,3-oxazol-2-yl)-2,4-dioxo-1H,2H,3H,4H-thieno[2,3-d]pyrimidin-3-yl]-2-methylpropanoic acid] | – | – | – | – | – | – | – | < 100 | < 100 | –
